Measured values reported in patent publication US12691151B2, “Methods and compositions for improving oncolytic virus infection for nonpermissive cancers” (Arizona Board of Regents on behalf of Arizona State …, priority 2019, dated 2026).
“Also recorded” adds a separate entry of the source.

Columns and labels:
Format in all cases: cell-based, human
A549 cell line = assay: MYXV replication in the permissive A549 cell line
HT29 cells [1] = test system: HT29 cells
HT29 cells [2] = test system: HT29 cells; remark: listed apart in the source
MDA-MB-435 cells [3] = test system: MDA-MB-435 cells
MDA-MB-435 cells [4] = test system: MDA-MB-435 cells; remark: listed apart in the source
PANC-1 cells [5] = test system: PANC-1 cells
PANC-1 cells [6] = test system: PANC-1 cells; remark: listed apart in the source
PANC-1 cells [7] = test system: PANC-1 cells; remark: listed apart in the source

What does the source list for `CCC(=C/[C@H](C)C/C=C/C(C)=C/[C@@H](C)C(=O)[C@@H](C)[C@H](O)[C@@H](C)C/C(C)=C/C(=O)O)/C=C/[C@@H]1OC(=O)C=C[C@@H]1C` [Leptomycin B]?
viral replication (A549 cell line): only increased viral replication at an MOI of 0.1 or lower; viral replication (virus titer) (HT29 cells [1]): enhanced viral replication; also recorded: enhanced MYXV replication; GFP (early/late) and TdTomato (late) expression (HT29 cells [2]): enhanced MYXV early (GFP) and late (TdTomato) gene expression levels; formation of foci (HT29 cells [2]): allowed formation of small foci; viral replication (virus titer) (MDA-MB-435 cells [3]): enhanced MYXV gene expression and replication; GFP (early/late) and TdTomato (late) expression (MDA-MB-435 cells [4]): enhanced GFP (early/late) and TdTomato (late) expression; also recorded: enhanced MYXV gene expression; formation of foci (MDA-MB-435 cells [4]): allowed formation of small foci; GFP (early/late) and TdTomato (late) expression (PANC-1 cells [5]): enhanced GFP (early/late) and TdTomato (late) expression; also recorded: enhanced MYXV gene expression; formation of foci (PANC-1 cells [5]): allowed formation of small foci; cell viability (ATP), Leptomycin B pretreatment plus MYXV (PANC-1 cells [6]): further reduced the viability; also recorded: reduced cell viability; cell viability (ATP) (PANC-1 cells [6]; 40 h): sensitive to Leptomycin B treatment alone; viral replication (virus titer) (PANC-1 cells [7]): enhanced MYXV gene expression and replication
